“Also recorded” adds a separate entry of the source.
Test system: left motor cortex
Assay: Interleaved TMS/phMRI (BOLD fMRI) with TMS over motor cortex
Type: in vivo, human
Details: for Voxels, effect of LTG (between day) / Z-score, effect of LTG (between day): Motor Cortex Stimulation, Placebo-LTG; for Z-score, effect of LTG (between day): p < .001
Description: Study design: We performed a randomized, double-blind, crossover trial involving two visits at least one week apart (FIG. 8). […] Serum LTG levels, RMTs, and interleaved TMS/phMRI images during both motor and then prefrontal TMS were then gathered for each subject. One week later they received LTG or placebo again, followed by identical RMT and interleaved TMS/phMRI studies.
Combined TMS and MRI: Immediately following RMT determination, interleaved TMS/phMRI acquisitions were performed in a Picker EDGE 1.5 T MR scanner with actively shielded magnet and high-performance gradients (27 mT/m, 72 T/m/sec) using a typical gradient echo, echo planar imaging (EPI) fMRI sequence (tip angle=90, TR=3 sec, FOV 27.0 cm, fifteen 7 mm thick slices, 1 mm gap). TMS was delivered using a Dantec MagPro with a special nonferromagnetic TMS coil of figure-8 design with an 8-meter cable (Dantec Medical A/S, Skovlunde, Denmark) and a room set up identical to prior TMS/fMRI studies from our group. TMS pulses and the fMRI sequence were interleaved as described before^21. Each cycle, illustrated in FIG. 9, consisted of six 21-sec sub-cycles—four Test and two task (100% RMT stimulation and 120% RMT stimulation). During each sub-cycle, the scanner acquired seven sets of 15 transverse images. During the task sub-cycles the TMS was triggered 100 ms after every […] image acquisition to produce a TMS stimulation rate of 1 Hz. The entire TMS/fMRI sequence lasted 882 sec (14.7 min).
TMS Coil Placement in the MRI scanner: Motor cortex: Before being placed into the MRI scanner, subjects had their resting motor threshold (RMT) quickly determined with the Dantec TMS while sitting on the MRI gantry. For many reasons (different capacitors, coil design, length of cable, MRI filter), the RMT determined with the Magstim in the BSL was not the same RMT needed inside the MRI scanner with the Dantec. After this new MRI RMT was determined, the TMS coil was rigidly mounted in the MR head coil with a specially designed TMS coil-holder, adjustable in six dimensions^22. Subjects wore swim caps and special earplugs. With the head coil on the gantry outside the scanner bore, subjects inserted their head into the head coil and adjusted their position while the TMS coil was intermittently pulsed with 100% RMT. Subjects adjusted their head until pulsing the coil caused visible movement of the contralateral (right) hand APB (3 out of 6). As soon as a subject's new MRI RMT-correct scalp location was determined, the holder's six dimensions and earplugs were locked. These head holder settings and RMT were recorded and used with the second visit. During the second MRI visit a week later, the headholder was set with the previous week's coordinates for that subject, and the previous RMT was used for the second visit.
Individual fMRI Data Analyses: MR scans were transferred into ANALYZE format and then further processed on Sun workstations (Sun Microsystems, Palo Alto, Calif.). Scans were checked using MEDx3.3 (Sensor Systems Inc, Sterling, Va.) for movement across runs, and then were coregistered to a mean image using automatic image registration. For all subjects, movement across the 14.7-minute study was less than 2 mm in all 3 axes. After correction of motion, we used a delayed boxcar model, employed a high-pass filter to remove signal drift, cardiac and respiratory effects, and other low frequency artifacts. Then, we spatially transformed each subject's data into the Talairach Atlas (input voxel dimensions, 2.1×2.1×8 mm, to output voxel dimensions, 4×4×4 mm), smoothed (4×2 mm) the data and generated z map with the Statistical Parametric Mapping (SPM) 96 module in MEDx3.3. We assumed an uncorrected F threshold UF P>0.99 to preserve as many voxels as possible for the cluster analysis.
Group fMRI Data Analyses: All subject's unthresholded z maps were combined based on comparison of condition (TMS vs Rest), intensity (100% RMT-TMS vs 120% RMT-TMS), visit (LTG vs Placebo). […]

Nc1nnc(-c2cccc(Cl)c2Cl)c(N)n1 [LTG, Lamotrigine]
number of active voxels in the motor cortex underneath the TMS coil, compared with placebo (120% RMT minus rest over motor cortex, 10 subjects, Wilcoxon p=0.05): significantly decreased | Z-score, region of activation (LTG day, within day, n = 10, 100% RMT-Rest, Left cingulate gyrus (BA 32), Talairach −4,32,28): 3.97 | Z-score, region of activation (LTG day, within day, n = 10, 100% RMT-Rest, Left insula (BA 13), Talairach −36,20,12): 3.98 | Z-score, region of activation (LTG day, within day, n = 10, 100% RMT-Rest, Left middle frontal gyrus (BA 46), Talairach −44,40,24): 4.59 | Z-score, region of activation (LTG day, within day, n = 10, 100% RMT-Rest, Right insula (BA 13), Talairach 36,8,12): 4.26 | Z-score, region of activation (LTG day, within day, n = 10, 100% RMT-Rest, Right middle frontal gyrus (BA 6), Talairach 32,8,52): 4.06 | Z-score, region of activation (LTG day, within day, n = 10, 100% RMT-Rest, Right postcentral gyrus (BA 3), Talairach 52,−16,40): 3.18 | Z-score, region of activation (LTG day, within day, n = 10, 100% RMT-Rest, Right precentral gyrus, Talairach 40,−4,32): 4.31 | Region of activation (LTG day, within day, n = 10, 120% RMT-100%): No activity | Z-score, region of activation (LTG day, within day, n = 10, 120% RMT-Rest, Left medial frontal gyrus (BA 6), Talairach −4,60,0): 4.06 | Z-score, region of activation (LTG day, within day, n = 10, 120% RMT-Rest, Left postcentral gyrus (BA 2), Talairach −36,0,4): 4.60 | Z-score, region of activation (LTG day, within day, n = 10, 120% RMT-Rest, Left superior temporal gyrus, Talairach −60,8,24): 3.14 | Z-score, region of activation (LTG day, within day, n = 10, 120% RMT-Rest, Left thalamus, Talairach −32,8,−24): 6.46 | Z-score, region of activation (LTG day, within day, n = 10, 120% RMT-Rest, Right cingulate gyrus, Talairach 4,28,−16): 4.33 | Z-score, region of activation (LTG day, within day, n = 10, 120% RMT-Rest, Right middle frontal gyrus (BA 9), Talairach 48,36,12): 4.62 | Z-score, region of activation (LTG day, within day, n = 10, 120% RMT-Rest, Right superior temporal gyrus (BA 38), Talairach 40,−12,4): 3.14 | Voxels, effect of LTG (between day) (Cerebellum, Right): 70 | Z-score, effect of LTG (between day) (Cerebellum, Right, Talairach 13,−46,−23): 3.34 | Voxels, effect of LTG (between day) (Left Precentral gyrus (underneath TMS coil)): 82 | Z-score, effect of LTG (between day) (Left Precentral gyrus (underneath TMS coil), Talairach −32,−24,52): 3.87 | Voxels, effect of LTG (between day) (Posterior Cingulate, Left): 93 | Z-score, effect of LTG (between day) (Posterior Cingulate, Left, Talairach −1,−25,50): 3.95 | Voxels, effect of LTG (between day) (Precuneus, Left): 132 | Z-score, effect of LTG (between day) (Precuneus, Left, Talairach −1,−62,50): 3.48 | TMS-induced activation in the motor cortex (underneath the coil) and other regions, compared to placebo (formal between-day analysis, group data in 10 subjects): significantly less; also recorded: reduced | % BOLD signal change in motor cortex compared with placebo (left primary motor cortex beneath the coil, 10 subjects, ANOVA F=11.89, p=0.007): significantly decreased

From patent publication US20090024021A1, “Methods and Systems for Using Transcranial Magnetic Stimulation and Functional Brain Mapping for Examining Cortical Sensitivity, Brain Communication, and Effects of Medication” (priority 2002, published 2009)
